From patent US20020107193A1, “Therapeutic uses for IP3 receptor-mediated calcium channel modulators” (priority 2000, published 2002)
Entries after “also recorded” stand apart in the source; their conditions may differ.

Columns and labels:
CREB = experiment: EMSA of CREB binding activity in cultured primary cortical neurons; format: cell-based, rat
Method: (§1) Cerebral cortices were removed from embryonic day 18 Sprague-Dawley rats (Harlan, Indianapolis, Ind.). Cells were dissociated as described previously (Mattson et al., 1995, J. Neurochem. 65:1740-1751.) and were seeded into polyethyleneimine-coated 60 mm culture dishes containing Eagle's Minimum Essential Medium supplemented with 26 mM NaHCO3, 40 mM glucose, 20 mM KCl, 1 mM sodium pyruvate, 10% (v/v) heat-inactivated fetal bovine serum (Sigma, St. Louis, Mo.), and 0.001% gentamycin sulfate. After a 3-5 h incubation period to allow for cell attachment, the medium was replaced with 2 ml of Neurobasal Medium with B27 supplements (GIBCO Life Technologies, Grand Island, N.Y.). Previous observations have shown that greater than 80% of the cells that attach in the first few hours after plating will survive longer than 7 days in Neurobasal Medium with no additional neurotrophic factors. Experimental treatments were performed on 7-to-9-day-old neuronal cultures in which there were approximately 5% contaminating glial cells.
Total cell extracts were prepared as described (Baeuerle and Baltimore, 1988, Cell 53:211-217). Briefly, cells were harvested, washed twice with ice-cold PBS and lysed for 30 min at 4° C. in Totex buffer (20 mM HEPES, pH 7.9, 350 mM NaC1, 20% glycerol, 1% NP-40, 1 mM MgC12, 0.5 mM EDTA, 0.1 mM EGTA, 5 mM DTT, 0.1% PMSF, 1% aprotinin, 4 μg/ml leupeptin). Samples were centrifuged at 14,000× g for 10 min and aliquots of supernatant were collected and stored at −70° C. until taken for assay. The protein content of the extract (supernatant) was measured by Bradford method (BIO-RAD Laboratories, Ercules, Calif., USA). […]
After 20 min at room temperature, reaction products were separated on a 7% non-denaturing polyacrylamide gel. […] Radioactivity of dried gels was detected by exposure to Kodak X-Omat film and images on the developed film were scanned into a computer using a UMAX 1200s scanner. […]
(§2) The possible involvement of endoplasmic reticulum pools of intracellular calcium regulated by IP3 receptors in controlling basal levels of NF-κB was investigated using Xestospongin C (XeC) a specific membrane permeable modulator of IP3-mediated Ca^2+release (Gafni et al., 1997, Neuron 19:723-733; Hu et al., 1999, J. Biol. Chem. 274:33995-33998), and thapsigargin (Tg), a specific inhibitor of ER calcium/ATPase (Thastrup et al., 1990, Proc. Natl. Acad. Sci. USA 87:2466-2470; Davidson and Varhol, 1995, J. Biol. Chem. 270:11731-11734.). Cultured primary cortical neurons were treated with either 1 μM XeC, 100 nM Tg or vehicle for 6 h and protein extracts were analyzed for NF-κB binding activity by EMSA electrophoresis.

NF-κB = experiment: EMSA of NF-κB binding activity in cultured primary cortical neurons; format: cell-based, rat
Method: as §1, with “Previous observations have shown that greater than 80% of the cells that attach in the first few hours after plating will survive longer than 7 days in Neurobasal Medium with no additional neurotrophic factors.” left out
Total cell extracts were prepared as described (Baeuerle and Baltimore, 1988, Cell 53:211-217). Briefly, cells were harvested, washed twice with ice-cold PBS and lysed for 30 min at 4° C. in Totex buffer (20 mM HEPES, pH 7.9, 350 mM NaC1, 20% glycerol, 1% NP-40, 1 mM MgC12, 0.5 mM EDTA, 0.1 mM EGTA, 5 mM DTT, 0.1% PMSF, 1% aprotinin, 4 μg/ml leupeptin). Samples were centrifuged at 14,000× g for 10 min and aliquots of supernatant were collected and stored at −70° C. until taken for assay. The protein content of the extract (supernatant) was measured by Bradford method (BIO-RAD Laboratories, Ercules, Calif., USA).
After 20 min at room temperature, reaction products were separated on a 7% non-denaturing polyacrylamide gel. Competition experiments were performed by incubating extracts with labeled oligonucleotide probe in the presence of 100-fold molar excess unlabeled NF-KB or CREB oligonucleotide. To characterize the NF-KB complexes, supershift assays were performed. Extracts were preincubated for 45 min at room temperature with antibodies recognizing either p50 or p65 sub-units of NF-κB (Santa Cruz Biotechnology, Santa Cruz, Calif.) or c-Fos (Oncogene Research Products, Cambridge, Mass.). The mixtures were further incubated with ^32P-labeled probe and resolved as described above. Radioactivity of dried gels was detected by exposure to Kodak X-Omat film and images on the developed film were scanned into a computer using a UMAX 1200s scanner. Densitometry was performed using Scion Image software (Scion Inc., Frederick, Md.). Paint Shop Pro software (JASC Inc. Minneapolis, Minn.) was used for preparation of the final figures.
as §2

C1CCC[C@H]2CCCN3CC[C@@H](CCCCCC[C@@H]4CCCN5CC[C@@H](CC1)O[C@@H]45)O[C@@H]23 [XeC, Xestospongin C]
binding activity of CREB, agent alone (CREB; cortical neurons, XeC 30 min pretreatment, 100 ng/ml TNFα 6 h, FIG. 2a): neither TNFα nor XeC alone affected the binding activity of CREB
CREB binding activity (CREB; cultured primary cortical neurons, 6 h, 1 μM XeC or 100 nM Tg, data not shown): slightly augmented CREB binding activity; however, this was not statistically significant
effect on TNFα-induced NF-κB activation (NF-κB; 1 μM XeC 30 min prior to 100 ng/ml TNFα for 6 h): completely abolished; also recorded: significantly inhibited
effect on thapsigargin-induced elevation in NF-κB binding (NF-κB; 1 μM XeC pretreatment, 100 nM Tg, 6 h): completely abolished the elevation
effect on glutamate-induced elevation in NF-κB binding (NF-κB; 1 μM XeC pretreatment, 20 μM glutamate, 6 h): completely abolished the elevation; also recorded: NF-κB binding below that of control; also recorded: totally abolish this induction
basal NF-κB binding activity relative to control levels (NF-κB; cultured primary cortical neurons, 6 h, 1 μM XeC or 100 nM Tg, EMSA): statistically significant (p<0.05) reduction; also recorded: can inhibit basal levels of NF-κB binding
